Results published in US5328838A, “Method for identifying and/or isolating genes which code for membrane receptors” (Enichem Partecipazioni S.p.A., priority 1990, dated 1994).

System: human β2-adrenergic receptor, β-galactosidase fusion protein expressed from λβ2 (λgt11) in E. coli Y1089
Details: 20 pM ICYP; non-radiolabeled agonists at 10^-8, 10^-8 and 10^-4 M; FIG. 3
Procedure: In order to further characterize the specificity of the test by replication on filters, 3 β-adrenergic agonists were tested on [λβ2] cells in bond-competition tests.
The bacterial cells were seeded on slabs of LB-agar of 10 cm of diameter and were grown for 12 hours at 30° C. Circular nitrocellulose filters (of 8.5 cm of diameter), previously drenched in 10 mM IPTG in the case of the expression of [λgt11], [λβ1] and [λβ2] lysogens were then laid above the bacterial colonies; the expression of proteins was induced for 2 hours, at 30° C. for the lysogenic colonies, and at 42° C. for the colonies transformed with pUEX1 and pUEXβ2, before the removal of the filters. The subsequent treatments were carried out at room temperature, with constant rocking. The replications on filter of the bacterial colonies were first incubated for 60 minutes in 10 ml of bond-establishing buffer (90 mM NaCl, 10 mM Tris-HCl pH 7.5) containing 20 mg/ml of bovine serumalbumin, and were then transferred for 90 minutes in 10 ml of bond-establishing buffer containing 20 mg/ml of bovine serumalbumin and 20 pM ICYP (2000 Ci/mmol, Amersham, U.K.). […]

In the case of NC[C@H](O)c1ccc(O)c(O)c1 [norepinephrine, (-)-norepinephrine], the “order of power of competition for the bond of ICYP” value is reported as “isoprotenerol>epinephrine>norepinephrine”.
In the case of CNC[C@H](O)c1ccc(O)c(O)c1 [epinephrine, (-)-epinephrine], the “order of power of competition for the bond of ICYP” value is reported as “isoprotenerol>epinephrine>norepinephrine”.
